Measured values taken from ChEMBL document CHEMBL1201862, “PubChem BioAssay data set” (2004).
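Results reflect a 48-hour exposure of cells in 96-well plates to compound at five concentrations. GI50 = concentration required for 50% inhibition of growth.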 The source made the active and inactive calls. No stated cut-off is given here; in the data, active = GI50 up to about 1.1 µM and inactive = higher.

Columns and labels:
Assay in all cases: DTP human tumour cell line panel, 48 h
U-251 = tested on: U-251
RPMI-8226 = tested on: RPMI-8226
SK-OV-3 = tested on: SK-OV-3
ACHN = tested on: ACHN
CAKI-1 = tested on: CAKI-1
NCI-H23 = tested on: NCI-H23
UACC-62 = tested on: UACC-62
Malme-3M = tested on: Malme-3M
HCC 2998 = tested on: HCC 2998
SF-295 = tested on: SF-295
M19-MEL = tested on: M19-MEL
NCI-H226 = tested on: NCI-H226
DMS-273 = tested on: DMS-273
M14 = tested on: M14
SF-268 = tested on: SF-268
OVCAR-3 = tested on: OVCAR-3
LOX IMVI = tested on: LOX IMVI
KM12 = tested on: KM12
K562 = tested on: K562
NCI-H522 = tested on: NCI-H522
IGROV-1 = tested on: IGROV-1
DMS-114 = tested on: DMS-114
SK-MEL-28 = tested on: SK-MEL-28
SW-620 = tested on: SW-620
HCT-15 = tested on: HCT-15
XF498 = tested on: XF498
HOP-92 = tested on: HOP-92
KM-20L2 = tested on: KM-20L2
COLO 205 = tested on: COLO 205
EKVX = tested on: EKVX
NCI-H460 = tested on: NCI-H460
LXFL 529 = tested on: LXFL 529
TK-10 = tested on: TK-10
SR = tested on: SR
MOLT-4 = tested on: MOLT-4
UACC-257 = tested on: UACC-257
SK-MEL-2 = tested on: SK-MEL-2
OVCAR-4 = tested on: OVCAR-4
HCT-116 = tested on: HCT-116
CCRF-CEM = tested on: CCRF-CEM
HT-29 = tested on: HT-29
RXF 393 = tested on: RXF 393
HOP-62 = tested on: HOP-62
UO-31 = tested on: UO-31
OVCAR-8 = tested on: OVCAR-8
OVCAR-5 = tested on: OVCAR-5
SN12C = tested on: SN12C

Measured: GI50

CN(C(=O)c1ccccc1)c1ccc2c(c1)C(=O)c1ccccc1C2=O
inactive: U-251 > 100 µM | RPMI-8226 > 100 µM | SK-OV-3 > 100 µM | ACHN > 100 µM | CAKI-1 > 100 µM | NCI-H23 > 100 µM | UACC-62 > 100 µM | Malme-3M > 100 µM | HCC 2998 > 100 µM | SF-295 > 100 µM | M19-MEL > 100 µM | NCI-H226 > 100 µM | DMS-273 > 100 µM | M14 > 100 µM | SF-268 > 100 µM | OVCAR-3 > 100 µM | LOX IMVI > 100 µM | KM12 > 100 µM | K562 > 100 µM | NCI-H522 > 100 µM | IGROV-1 > 100 µM | DMS-114 > 100 µM | SK-MEL-28 > 100 µM | SW-620 > 100 µM | XF498 > 100 µM | HOP-92 > 100 µM | KM-20L2 > 100 µM | COLO 205 > 100 µM | EKVX > 100 µM | NCI-H460 > 100 µM | LXFL 529 > 100 µM | TK-10 > 100 µM | SR > 100 µM | MOLT-4 > 100 µM | UACC-257 > 100 µM | SK-MEL-2 > 100 µM | OVCAR-4 > 100 µM | HCT-116 > 100 µM | CCRF-CEM > 100 µM | HT-29 > 100 µM | RXF 393 > 100 µM | HOP-62 > 100 µM | UO-31 > 100 µM | OVCAR-8 > 100 µM | OVCAR-5 > 100 µM | SN12C > 100 µM
> 100 µM: HCT-15
